{"source": "patent US20250179499A1", "about": "“USE OF CDK16 AS TARGET IN PREPARATION OF MEDICINE FOR TREATING TRIPLE-NEGATIVE BREAST CANCER” (SHENZHEN TYERCAN BIO-PHARM CO., LTD., priority 2022, published 2025)", "key": {"MDA-MB-231 xenografts": {"test_system": "MDA-MB-231 xenografts", "assay": "Growth of MDA-MB-231 xenografts transplanted in situ into mammary gland fat pads", "assay_type": "in vivo, mice", "details": "Rebastinib 80 mg/kg by gavage, 13 days, vs solvent control; FIG. 5A-5D", "source_text": "Lentivirus-infected breast tumor cells were resuspended with 50% of FBS (diluted with PBS), added with Matrigel at a volume ratio of 1:1, then added with 0.04% of trypan blue, mixed well, and placed on ice until inoculation into mice. After the mouse was anesthetized, it was placed on an experimental table with its abdomen facing upwards, and a “Y”-shaped opening was cut in its abdominal epidermis along a midline and the direction of the lower limbs on both sides with scissors (without cutting the peritoneum). The opening was peeled off to both sides with cotton swabs and tweezers to expose the fourth pair of mammary gland fat pads, and the epidermis was fixed with needles. 10-20 μL of a cell suspension was drawn up with a syringe and injected into the mammary gland fat pads. Finally, the skin on both sides was closed and sutured with surgical staples. The surgical staples could be removed after the wound healed. Since the surgery, the occurrence of tumors in the mouse was observed and recorded every day. After about one week, the length and width of the tumor were measured with a vernier caliper and recorded, and the change in the weight of the mouse was monitored. The tumor volume was calculated by the following formula: Volume (mm^3)=length×width×width×0.52.\n(§1) The tumor cell line was transplanted in situ as that in Example 1. When the tumor size reached […], the mice were divided into a control group (solvent) and a group administrated with Rebastinib (80 mg/kg), with 3 mice in each group. The mice were administrated by gavage continuously (administrated with MDA-MB-231 xenografts for 13 days and administrated with PDX for 11 days), during which the mice were weighed every day, and the tumor size was measured every three days. After completion of the administration, the mice were sacrificed and the tumors were weighed."}, "TNBC-type PDX tumors": {"test_system": "TNBC-type PDX tumors", "assay": "Growth of TNBC-type PDX tumors", "assay_type": "in vivo, NSG mice", "details": "Rebastinib 80 mg/kg by gavage, 11 days, vs solvent control; FIG. 5H-5K", "protocol": "Primary tumor cells from the patient infected with the lentivirus were in-situ injected into the fourth pair of mammary gland fat pads of the NSG mice according to the method described in 3, and the occurrence of tumors was observed and recorded.\nas §1"}, "TNBC-type PDOs": {"test_system": "TNBC-type PDOs", "assay": "Growth of TNBC PDO (patient-derived organoids in Matrigel)", "assay_type": "cell-based, human", "details": "1 μM and 5 μM", "protocol": "The primary tumor cells from the patient infected with the lentivirus were resuspended with pre-cooled Matrigel to a concentration of 2× 10^4 cells/50 μL Matrigel. The Matrigel was added dropwise into a 24-well culture plate and allowed to stand at 37° C. for 15-20 min. After confluence, the cells were added with a breast cancer tumor organoid culture medium for culture, the culture medium was replaced by a fresh culture medium every three days, and the number and size of organoid growth were counted.\nSimilar to the PDO model establishment operation in Example 1, the primary tumor cells derived from TNBC patients were resuspended with pre-cooled Matrigel to a concentration of 2×10^4 cells/50 μL Matrigel. The Matrigel was added dropwise into a 24-well culture plate and allowed to stand at 37° C. for 15-20 min. After confluence, the cells were added with a breast cancer tumor organoid culture medium for culture, and the culture medium was replaced by a fresh culture medium every three days. The PDOs were divided into 6 groups, including an untreated group, a solvent control group, groups administrated with low and high doses of Abemaciclib (with doses of 1 μM and 5 μM, respectively), and groups administrated with low and high doses of Rebastinib (with doses of 1 μM and 5 μM, respectively). After three days of culture, the PDOs were started to be treated by addition of a drug according to groups. The size and number of organoids were counted after one week."}}, "data": [{"smiles": "CNC(=O)c1cc(Oc2ccc(NC(=O)Nc3cc(C(C)(C)C)nn3-c3ccc4ncccc4c3)c(F)c2)ccn1", "note": "[Rebastinib]", "values": [{"measurement": "sizes of MDA-MB-231 tumors", "setting": "MDA-MB-231 xenografts", "result": "significantly inhibits"}, {"measurement": "volumes of MDA-MB-231 tumors", "setting": "MDA-MB-231 xenografts", "result": "significantly inhibits"}, {"measurement": "weights of MDA-MB-231 tumors", "setting": "MDA-MB-231 xenografts", "result": "significantly inhibits"}, {"measurement": "sizes of TNBC-type PDX tumors", "setting": "TNBC-type PDX tumors", "result": "significantly inhibits"}, {"measurement": "volumes of TNBC-type PDX tumors", "setting": "TNBC-type PDX tumors", "result": "significantly inhibits"}, {"measurement": "weights of TNBC-type PDX tumors", "setting": "TNBC-type PDX tumors", "result": "significantly inhibits"}, {"measurement": "sizes of TNBC-type PDOs", "setting": "TNBC-type PDOs; counted after one week, FIG. 5E", "result": "significantly inhibits"}, {"measurement": "number of TNBC-type PDOs", "setting": "TNBC-type PDOs; counted after one week, FIG. 5F", "result": "significantly reduces"}, {"measurement": "apoptosis of TNBC-type PDOs", "setting": "TNBC-type PDOs; FIG. 5G", "result": "promotes"}, {"measurement": "proliferation of TNBC-type PDOs", "setting": "TNBC-type PDOs; FIG. 5G", "result": "significantly inhibits"}]}]}
